In patent publication US20260007684A1, “AMIDE DERIVATIVES FOR INHIBITING NLRP3 AND USES THEREOF” (Ventus Therapeutics U.S., Inc., priority 2023, published 2026) one finds IC50 data, which are given here for 37 molecules.

As a reminder, the pIC50 is −log10 of the IC50, conventionally taken in molar units.

pIC50: −log10 of the molar value. A value given as a limit tells only on which side of the number the result lay.

One test deals with human NLRP3 (Homo sapiens (Human), UniProt Q96P20). Put plainly: Scintillation Proximity (SPA) NLRP3 Assay: displacement of 3H-MCC950. It counts as binding. The following applies: SPA IC50, displacement of 3H-MCC950.
human NLRP3, sequence (Q96P20 whole entry): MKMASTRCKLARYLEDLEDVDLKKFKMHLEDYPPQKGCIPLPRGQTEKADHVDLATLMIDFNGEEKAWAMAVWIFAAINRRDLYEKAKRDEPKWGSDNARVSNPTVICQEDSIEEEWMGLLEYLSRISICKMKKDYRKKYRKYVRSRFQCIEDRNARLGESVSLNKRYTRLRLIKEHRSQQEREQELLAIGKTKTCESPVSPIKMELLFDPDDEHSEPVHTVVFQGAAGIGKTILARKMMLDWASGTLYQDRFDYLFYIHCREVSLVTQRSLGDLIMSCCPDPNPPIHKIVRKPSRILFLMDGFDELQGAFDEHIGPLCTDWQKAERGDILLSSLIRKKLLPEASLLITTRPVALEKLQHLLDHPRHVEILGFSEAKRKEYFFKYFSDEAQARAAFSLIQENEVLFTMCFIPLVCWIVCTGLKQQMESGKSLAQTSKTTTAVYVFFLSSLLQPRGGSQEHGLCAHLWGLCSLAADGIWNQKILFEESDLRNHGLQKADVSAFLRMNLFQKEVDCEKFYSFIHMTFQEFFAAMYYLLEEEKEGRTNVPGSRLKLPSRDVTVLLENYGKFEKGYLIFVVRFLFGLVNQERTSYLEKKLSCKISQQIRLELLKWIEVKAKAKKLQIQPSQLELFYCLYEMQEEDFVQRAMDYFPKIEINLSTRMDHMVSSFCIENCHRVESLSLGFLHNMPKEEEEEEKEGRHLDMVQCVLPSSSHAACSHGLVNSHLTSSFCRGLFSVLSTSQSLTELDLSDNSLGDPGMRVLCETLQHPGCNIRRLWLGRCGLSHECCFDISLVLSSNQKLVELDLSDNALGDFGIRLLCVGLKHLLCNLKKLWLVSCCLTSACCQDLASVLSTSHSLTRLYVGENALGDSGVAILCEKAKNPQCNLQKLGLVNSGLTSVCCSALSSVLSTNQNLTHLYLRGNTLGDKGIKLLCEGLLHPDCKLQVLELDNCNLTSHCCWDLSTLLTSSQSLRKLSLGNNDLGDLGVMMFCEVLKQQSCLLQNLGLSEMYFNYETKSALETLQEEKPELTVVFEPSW
`C[C@@H]1C[C@H]2CC[C@@H]([C@@H](NC(=O)C3(c4ccc(C(F)(F)F)cc4)CC3)C1)N2c1nnn[nH]1` [104D*, N-((1S,2S,4S,6R)-4-methyl-9-(1H-tetrazol-5-yl)-9-azabicyclo[4.2.1]nonan-2-yl)-1-(4-(trifluoromethyl)phenyl)cyclopropane-1-carboxamide] had a pIC50 of 4.30 to 5.00. For `O=C(N[C@@H]1CCC[C@H]2CC[C@@H]1N2c1nnn[nH]1)C1(c2ccc(C(F)(F)F)cc2O)CC1` [88C*, N-((1S,2R,6S)-9-(1H-tetrazol-5-yl)-9-azabicyclo[4.2.1]nonan-2-yl)-1-(2-hydroxy-4-(trifluoromethyl)phenyl)cyclopropane-1-carboxamide], the negative logarithm of the IC50 (pIC50) is 4.00 to 4.30. `C[C@H]1C[C@@H]2CC[C@H]([C@@H](NC(=O)C3(c4ccc(C(F)(F)F)cc4)CC3)C1)N2c1nnn[nH]1` [104B*, N-((1R,2S,4R,6S)-4-methyl-9-(1H-tetrazol-5-yl)-9-azabicyclo[4.2.1]nonan-2-yl)-1-(4-(trifluoromethyl)phenyl)cyclopropane-1-carboxamide] showed a pIC50 of 4.30 to 5.00. Still for that read-out and setting: under `O=C(N[C@H]1CCC[C@H]2CC[C@@H]1N2c1nnn[nH]1)C1(c2ccc(C(F)(F)F)cc2O)CC1` [88D*, N-((1S,2S,6S)-9-(1H-tetrazol-5-yl)-9-azabicyclo[4.2.1]nonan-2-yl)-1-(2-hydroxy-4-(trifluoromethyl)phenyl)cyclopropane-1-carboxamide] stands 5.00 to 6.00.

Still in this test, the particulars now being: displacement of 3H-MCC950; read-out: SPA IC50.
Consider `C[C@H]1CCN(c2nnn[nH]2)C[C@@H](NC(=O)C2(c3ccc(C(F)(F)F)c(F)c3)CC2)C1` (single isomer, unassigned) [66D*], for which the pIC50 was 4.30 to 5.00. Take `C[C@@H]1CC[C@@H](NC(=O)C2(c3ccc(C(F)(F)F)cc3O)CC2)CN(c2nnn[nH]2)C1` [89C*, 1-(2-hydroxy-4-(trifluoromethyl)phenyl)-N-((3R,6R)-6-methyl-1-(1H-tetrazol-5-yl)azepan-3-yl)cyclopropane-1-carboxamide]: the pIC50 was 5.00 to 6.00. Regarding `C[C@@H]1C[C@H](NC(=O)C2(c3ccc(OC(F)F)cc3)CC2)[C@H]2CC[C@@H]1N2c1nnn[nH]1` (single isomer, unassigned) [35B*], the pIC50 was 4.00 to 4.30. The same measure, in the same setting: under `C[C@H]1CCN(c2nnn[nH]2)C[C@H](NC(=O)C2(c3ccc(Cl)cc3Cl)CC2)C1` (single isomer, unassigned) [55C*] stands 4.00 to 4.30; under `C[C@H]1CCN(c2nnn[nH]2)C[C@@H](NC(=O)C2(c3ccc(OC(F)F)c(F)c3)CC2)C1` (single isomer, unassigned) [73D*], 5.00 to 6.00; under `C[C@H]1CCN(c2nnn[nH]2)C[C@@H](NC(=O)C2(c3ccc(OC(F)(F)F)cc3O)CC2)C1` (single isomer, unassigned) [62D*], 5.00 to 6.00.

Take `C[C@H]1C[C@H](NC(=O)C2(c3ccc(C4CC4(F)F)cc3)CC2)[C@@H]2CC[C@H]1N2c1nnn[nH]1` (single isomer, unassigned) [37D*]: the pIC50 is below 4.00. The same measure, in the same setting: under `O=C(N[C@H]1CCCCCN(c2nnn[nH]2)C1)C1(c2ccc(Cl)cc2)CC1` (single isomer, unassigned) [14B*, N-(1-(1H-tetrazol-5-yl)azocan-3-yl)-1-(4-chlorophenyl)cyclopropane-1-carboxamide] stands 4.30 to 5.00; under `C[C@@H]1CCN(c2nnn[nH]2)C[C@@H](NC(=O)C2(c3ccc(Cl)c(F)c3F)CC2)C1` (single isomer, unassigned) [4B*, 1-(4-chloro-2,3-difluorophenyl)-N-(5-methyl-1-(1H-tetrazol-5-yl)azepan-3-yl)cyclopropane-1-carboxamide], 4.30 to 5.00. The same measure, in the same setting: under `Cc1ccc(C2(C(=O)N[C@H]3C[C@@H](C)CCN(c4nnn[nH]4)C3)CC2)c(O)c1F` (single isomer, unassigned) [22D*, 1-(3-fluoro-2-hydroxy-4-methylphenyl)-N-(5-methyl-1-(1H-tetrazol-5-yl)azepan-3-yl)cyclopropane-1-carboxamide] stands 5.00 to 6.00; under `C[C@@H]1C[C@@H](NC(=O)C2(c3ccc(OC(F)F)cc3)CC2)[C@@H]2CC[C@H]1N2c1nnn[nH]1` (single isomer, unassigned) [35G*], below 4.00; under `C[C@H]1CCN(c2nnn[nH]2)C[C@@H](NC(=O)C2(c3ccc(Cl)cc3F)CC2)C1` (single isomer, unassigned) [56D*], 4.30 to 5.00. With `C[C@H]1CCN(c2nnn[nH]2)C[C@@H](NC(=O)C2(c3ccc(C(F)F)cc3)CC2)C1` (single isomer, unassigned) [5D*, 1-(4-(difluoromethyl)phenyl)-N-(5-methyl-1-(1H-tetrazol-5-yl)azepan-3-yl)cyclopropane-1-carboxamide], the negative-log IC50 (pIC50) is 4.30 to 5.00. As for `C[C@H]1CCN(c2nnn[nH]2)C[C@@H](NC(=O)C2(c3ccc(OC(F)F)cc3F)CC2)C1` (single isomer, unassigned) [3D*], the pIC50 was 5.00 to 6.00. Turning to `C[C@H]1CCN(c2nnn[nH]2)C[C@H](NC(=O)C2(c3ccc(OC(F)(F)F)cc3F)CC2)C1` (single isomer, unassigned) [64C*], the pIC50 is 4.00 to 4.30. Same read-out and setting: the result for `C[C@H]1C[C@@H](NC(=O)C2(c3ccc(OC(F)(F)F)cc3)CC2)[C@@H]2CC[C@H]1N2c1nnn[nH]1` [82C*, N-((1S,2R,4S,5R)-4-methyl-8-(1H-tetrazol-5-yl)-8-azabicyclo[3.2.1]octan-2-yl)-1-(4-(trifluoromethoxy)phenyl)cyclopropane-1-carboxamide] reads below 4.00. `C[C@H]1CCN(c2nnn[nH]2)C[C@H](NC(=O)C2(c3ccc(C(F)F)cc3)CC2)C1` (single isomer, unassigned) [5C*, 1-(4-(difluoromethyl)phenyl)-N-(5-methyl-1-(1H-tetrazol-5-yl)azepan-3-yl)cyclopropane-1-carboxamide]: the pIC50 was below 4.00. As to `C[C@H]1C[C@H](NC(=O)C2(c3ccc(C(F)F)cc3)CC2)[C@@H]2CC[C@H]1N2c1nnn[nH]1` [86D*, 1-(4-(difluoromethyl)phenyl)-N-((1S,2S,4S,5R)-4-methyl-8-(1H-tetrazol-5-yl)-8-azabicyclo[3.2.1]octan-2-yl)cyclopropane-1-carboxamide], the pIC50 is below 4.00.

On to `Cc1ccc(C2(C(=O)N[C@H]3C[C@@H](C)CCN(c4nnn[nH]4)C3)CC2)c(O)c1` (single isomer, unassigned) [67D*], for which the pIC50 is 5.00 to 6.00.

Take `C[C@@H]1C[C@H](NC(=O)C2(c3ccc(C(F)F)cc3)CC2)[C@H]2CC[C@@H]1N2c1nnn[nH]1` [86B*, 1-(4-(difluoromethyl)phenyl)-N-((1R,2S,4R,5S)-4-methyl-8-(1H-tetrazol-5-yl)-8-azabicyclo[3.2.1]octan-2-yl)cyclopropane-1-carboxamide]: the pIC50 was 4.30 to 5.00.

In the case of `COc1cc(F)c(C2(C(=O)N[C@H]3C[C@H](C)[C@H]4CC[C@@H]3N4c3nnn[nH]3)CC2)c(F)c1` (single isomer, unassigned) [102D*], the pIC50 is 4.30 to 5.00. As to `C[C@@H]1CCN(c2nnn[nH]2)C[C@H](NC(=O)C2(c3ccc(C4CCC4)cc3)CC2)C1` (single isomer, unassigned) [8A*, 1-(4-cyclobutylphenyl)-N-(5-methyl-1-(1H-tetrazol-5-yl)azepan-3-yl)cyclopropane-1-carboxamide], the pIC50 is 5.00 to 6.00. Consider `C[C@]1(NC(=O)C2(c3ccc(Cl)cc3)CC2)CCCN(c2nnn[nH]2)C1` (single isomer, unassigned) [11B*, 1-(4-chlorophenyl)-N-(3-methyl-1-(1H-tetrazol-5-yl)piperidin-3-yl)cyclopropane-1-carboxamide], for which the pIC50 was below 4.00.

For the molecule `Cc1ccc(C2(C(=O)N[C@H]3C[C@H](C)CCN(c4nnn[nH]4)C3)CC2)cc1` (single isomer, unassigned) [71B*], the negative logarithm of the IC50 (pIC50) was 4.00 to 4.30.

For `C[C@@H]1CCN(c2nnn[nH]2)C[C@@H](NC(=O)C2(c3ccc(C(F)F)cc3)CC2)C1` (single isomer, unassigned) [5B*, 1-(4-(difluoromethyl)phenyl)-N-(5-methyl-1-(1H-tetrazol-5-yl)azepan-3-yl)cyclopropane-1-carboxamide], the pIC50 is 4.30 to 5.00. On the same count and under the same terms, the result for `C[C@H]1[C@H](NC(=O)C2(c3ccc(Cl)cc3)CC2)CCCN1c1nnn[nH]1` [Compound 40C, 1-(4-chlorophenyl)-N-[(2S,3R)-2-methyl-1-(1H-tetrazol-5-yl)-3-piperidyl]cyclopropanecarboxamide] reads below 4.00; that for `O=C(N[C@H]1CC[C@@H]2CC[C@H]1N2c1nnn[nH]1)C1(c2ccc(Cl)c(F)c2O)CC1` [76B*, N-((1R,2S,5R)-8-(1H-tetrazol-5-yl)-8-azabicyclo[3.2.1]octan-2-yl)-1-(4-chloro-3-fluoro-2-hydroxyphenyl)cyclopropane-1-carboxamide], 4.30 to 5.00; that for `C[C@@H]1C[C@H](NC(=O)C2(c3ccc(C4CC4(F)F)cc3)CC2)[C@H]2CC[C@@H]1N2c1nnn[nH]1` (single isomer, unassigned) [37B*], 4.30 to 5.00.

`O=C(N[C@@H]1C[C@H](C(F)(F)F)[C@H]2CC[C@@H]1N2c1nnn[nH]1)C1(c2ccc(Cl)cc2)CC1` (single isomer, unassigned) [103C*]: the pIC50 was below 4.00.

In the case of `O=C(N[C@H]1CN(c2nnn[nH]2)CC[C@H]1F)C1(c2ccc(Cl)cc2)CC1` [Compound 50A, 1-(4-chlorophenyl)-N-[(3S,4R)-4-fluoro-1-(1H-tetrazol-5-yl)-3-piperidyl]cyclopropanecarboxamide], the pIC50 is 4.30 to 5.00. Consider `C[C@H]1C[C@@H](NC(=O)C2(c3ccc(Cl)cc3)CC2)[C@@H]2CC[C@H]1N2c1nnn[nH]1` [80C*, 1-(4-chlorophenyl)-N-((1S,2R,4S,5R)-4-methyl-8-(1H-tetrazol-5-yl)-8-azabicyclo[3.2.1]octan-2-yl)cyclopropane-1-carboxamide], for which the pIC50 is below 4.00.

On to `C[C@H]1C[C@@H](NC(=O)C2(c3ccc(OC(F)F)cc3)CC2)[C@@H]2CC[C@H]1N2c1nnn[nH]1` (single isomer, unassigned) [35C*], for which the pIC50 was below 4.00.

Still in this test, the particulars now being: read-out: SPA IC50.
In the case of `Cn1nnc(-c2cccc(NC(=O)C3(c4ccc(Cl)cc4)CC3)c2)n1` [Comparative Example E2, 1-(4-chlorophenyl)-N-(3-(2-methyl-2H-tetrazol-5-yl)phenyl)cyclopropane-1-carboxamide, reference compound], the negative-log IC50 (pIC50) is below 3.30.
